# In patent US10206900B2, “Treatments for fibrotic diseases” (MOR RESEARCH APPLICATIONS LTD., priority 2013, dated 2019):
# Experiments:
# Format in all cases: cell-based
# [1] = system: RPE cells; experiment: Cell size / morphology (rhodamine-phalloidin staining) upon TGF-β1; details: 5Z-7-oxozeaenol 1 μM or SB431542 10 μM prior to TGF-β1
# Procedure: FIG. 3A: RPE cells were plated on fibronectin-coated glass coverslips, serum-starved for 16 hours, pretreated with 5Z-7-oxozeaenol (1 μM) or SB431542 (10 μM), or DMSO for 1 hour, then treated with or without TGF-β1 for 2 days. Following treatment, the cells were stained with rhodamine-phalloidin (actin fibers-red) and DAPI (blue) and visualized by confocal microscopy. Scale bars: […]. FIG. 3B: Serum-starved RPE cells pretreated with 5Z-7-oxozeaenol (1 μM) or DMSO for 1 hour, and were exposed to TGF-β as in FIG. 3A. Total RNA was extracted at each time point and qPCR was performed. Transcription levels of CTGF were determined after 6 h, 16 h and 24 h. Bars represent the specific mRNA amount relative to GAPDH mRNA in the same samples. All experiments were performed in triplicates. A representative histogram from two independent experiments is shown. FIG. 3C: RPE cells were plated and treated as in FIG. 3A. Following treatment, the cells were immunostained with E-cadherin antibodies (green) and DAPI (blue). Representative photographs of two independent experiments are shown. In addition to the secretion of MMPs and increased migratory capacity, several morphological changes underlie EMT (Lamouille et al., I 2007, 178:437-451). […]
# [2] = system: p38; experiment: p38 phosphorylation by immuno-blot in W2b liver hepatocytes; details: 1 μM for 1 hour, TGF-β 2.5 ng/ml
# Procedure: FIG. 10: Inhibition of TAK1 abolishes the activation of TGF-β cascades in liver cells. TGF-β1 up-regulates-Smad 2/3 and p38 activation and E-cadherin expression via TAK1 activity in hepatic cells. W2B liver hepatocytes cells were treated with or without 5Z-7-oxozeaenol followed by TGF-β treatment and Smad2/3 and p38 phosphorylation patterns were examined by immuno-blots. W2b liver hepatocytes cells were treated with or without 5Z-7-oxozeaenol (1 μM) for 1 hour followed by TGF-β treatment (2.5 ng/ml) for the indicated times. Smad2/3 and p38 phosphorylation patterns were examined by immuno-blots as described above.
# [3] = system: RPE cells; experiment: In vitro scratch wound healing assay upon TNFα stimulation; details: 1 μM for 1 hour before 20 ng/ml TNFα, day 1 and 2
# Procedure: FIG. 8A: Cell migration of RPE cells in in vitro scratch wound healing assay. RPE cells were treated with Mitomycin C for 3 hours. After the cells were treated with 1 μM 5Z-7 for 1 hour before adding 20 ng/ml TNFα and wounding on day 0. Photographs were taken at day 1 and 2, respectively, after the wound was made. FIG. 8B: Percentage of the gap size (*, P<0.05, t test); (**, P<0.01, t test). To further support the finding that TAK1 mediated EMT in RPE, we examined the migratory capacity of RPE cells, a well-known marker for EMT (Lee et al., J Cell Biol 2006, 172:973-981). Cell migration was tested by the scratch assay. The assay was performed on RPE cells pretreated or untreated with TAK1 inhibitor prior to stimulation with TGF-β1. […] At 24 hours, in the TGF-β1 treated culture, a major portion of the cells had already migrated into the wounded area, displaying almost complete wound closure at 48 hours.
# [4] = system: CTGF; experiment: CTGF transcription by qPCR in RPE cells; details: 1 μM, TGF-β1, 6 h, 16 h and 24 h
# Procedure: FIG. 3A: RPE cells were plated on fibronectin-coated glass coverslips, serum-starved for 16 hours, pretreated with 5Z-7-oxozeaenol (1 μM) or SB431542 (10 μM), or DMSO for 1 hour, then treated with or without TGF-β1 for 2 days. Following treatment, the cells were stained with rhodamine-phalloidin (actin fibers-red) and DAPI (blue) and visualized by confocal microscopy. Scale bars: […]. FIG. 3B: Serum-starved RPE cells pretreated with 5Z-7-oxozeaenol (1 μM) or DMSO for 1 hour, and were exposed to TGF-β as in FIG. 3A. Total RNA was extracted at each time point and qPCR was performed. Transcription levels of CTGF were determined after 6 h, 16 h and 24 h. Bars represent the specific mRNA amount relative to GAPDH mRNA in the same samples. All experiments were performed in triplicates. A representative histogram from two independent experiments is shown. FIG. 3C: RPE cells were plated and treated as in FIG. 3A. Following treatment, the cells were immunostained with E-cadherin antibodies (green) and DAPI (blue). Representative photographs of two independent experiments are shown. CTGF, an important stimulant of fibrosis, functions as a downstream mediator of TGF-β, stimulating cell proliferation and cell matrix deposition (He et al., Invest Ophthalmol Vis Sci 2008, 49:4078-4088). We examined the association between TGF-β1 and CTFG expression in RPE cells by Real Time PCR (FIG. 3B).
# [5] = system: TGF-β cascades in epithelial lung cells; experiment: Western blot of TGF-β cascades in A549 lung cells; details: 1 μM for 1 hour, TGF-β 2.5 ng/ml
# Procedure: FIG. 14: Inhibition of TAK1 by 5z-7 abolishes the activation of TGF-β cascades in epithelial lung cells: Serum-starved A549 cells were pretreated with or without with 5Z-7-oxozeaenol (1 μM) for 1 hour and then with TGF-β (2.5 ng/ml) for the indicated times. Total protein extracts were analyzed by western blot using the indicated antibodies. […] Similarly, A549 lung cells were pretreated with or without with 5Z-7-oxozeaenol (1 μM) for 1 hour and then with TGF-β (2.5 ng/ml).
compound,measurement,setting,value
COc1cc(O)c2c(c1)/C=C/C[C@H](O)[C@H](O)C(=O)/C=C\C[C@H](C)OC2=O [5Z-7-oxozeaenol],TGF-β1-induced increase in cell size (hypertrophic RPE cells),[1],minimal number of hypertrophic RPE cells
same,p38 activation,[2],barely detectable
same,migration rates of RPE cells treated with TNFα,[3],inhibited the migration rates
same,levels of CTGF (mRNA relative to GAPDH),[4],gradually reduced the levels of CTGF
same,fibrotic affect stimulated by TGF-β (western blot),[5],abolishes the fibrotic affect
